Structures are written as SMILES.

Assay [1] has as its target T1, Prostaglandin D2 receptor 2 (Homo sapiens, UniProt Q9Y5Y4).
T1 sequence (Q9Y5Y4 whole entry): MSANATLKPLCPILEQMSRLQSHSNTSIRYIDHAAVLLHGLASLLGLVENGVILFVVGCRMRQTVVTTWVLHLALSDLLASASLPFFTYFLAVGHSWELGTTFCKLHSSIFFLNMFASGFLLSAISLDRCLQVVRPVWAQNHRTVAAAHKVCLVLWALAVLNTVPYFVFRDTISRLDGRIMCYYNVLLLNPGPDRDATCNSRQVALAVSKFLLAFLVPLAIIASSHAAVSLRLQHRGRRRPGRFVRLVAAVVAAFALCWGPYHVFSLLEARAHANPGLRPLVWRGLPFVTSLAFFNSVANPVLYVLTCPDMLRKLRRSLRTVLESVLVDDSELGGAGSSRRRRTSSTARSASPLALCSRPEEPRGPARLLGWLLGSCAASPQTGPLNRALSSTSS
Put plainly: Antagonist activity at CRTh2 (unknown origin) stably expressed in PGD2-stimulated CHO.K1 cells preincubated for 1 hr by radio-labelled [35S]-GTPgammaS binding assay. It is filed as functional, cell-based. A general note: Binding of GTPγS marks nucleotide exchange on a G protein.

For assay [2], the target named is T2, Prostaglandin D2 receptor 2 (Homo sapiens) (UniProt Q9Y5Y4).
T2 sequence (whole entry): T1 sequence (Q9Y5Y4 whole entry)
The following applies: CHO.K1.
Description: Antagonist activity at CRTh2 (unknown origin) stably expressed in PGD2-stimulated CHO.K1 cells assessed as dissociation half-life at 10 times IC50 after 1 hr preincubation by radio-labelled [35S]-GTPgammaS binding assay

Assay [3] has as its target T2, Prostaglandin D2 receptor 2 (Homo sapiens). Put plainly: Antagonist activity at CRTh2 (unknown origin) stably expressed in PGD2-stimulated CHO.K1 cells assessed as dissociation half-life at 10 times IC50 after 1 hr preincubation measured at 28 hrs after washout by radio-labelled [35S]-GTPgammaS binding assay. The assay is classed as functional, cell-based.

Broadly, the IC50 is the concentration that inhibits the measured activity by half. On to `Cc1ccc2c(CC(=O)O)cn(-c3ccc(Cl)cc3Cc3c(C4CC4)noc3C3CC3)c2n1`, for which the IC50 in assay [1] (read-out: IC50) came out at 6 nM. In addition, in assay [2], the T1/2 is 22 h.
On the same counts, the results for `Cc1ccc2c(CC(=O)O)cn(-c3ccc(F)cc3Cc3c(C)noc3C)c2n1` are 2 nM and 3 h.
The corresponding values for `Cc1noc(C)c1-c1cccc(-c2c(C)n(CC(=O)O)c3ccc(F)cc23)c1` are 6 nM and 18 h.
For the molecule `Cc1cnn(C)c1Cc1cc(C(F)(F)F)ccc1-c1cn(CC(=O)O)c2ccc(F)cc12`, the IC50 in assay [1] (read-out: IC50) amounted to 64 nM. In assay [2], this molecule gave a T1/2 of 2.5 h.
Take `Cc1ccc2c(CC(=O)O)cn(-c3ccccc3Cn3nc(C)nc3C)c2n1`: in assay [1] (cho.k1), the IC50 result is reported as “Not Active”.
Take `Cc1ccc2c(CC(=O)O)cn(-c3ccc(F)cc3Cc3c(C)noc3C3CC3)c2n1`: the IC50 in assay [1] (read-out: IC50) is 2 nM. Besides, the T1/2 in assay [2] came out at 6 h.
On the same counts, the results for `Cc1ccc(-n2cc(CC(=O)O)c3ccc(C)nc32)c(Cc2c(C)cnn2CC2CC2)c1` are 4 nM and 10 h.
On the same counts, the results for `Cc1ccc2c(CC(=O)O)cc(-c3ccc(C(F)(F)F)cc3Cc3c(C)noc3C3CC3)n2n1` are 3 nM and 14 h.
On the same counts, the results for `Cc1noc(C2CC2)c1Cc1cc(F)ccc1-c1cn(CC(=O)O)c2ccc(C(F)(F)F)cc12` are 37 nM and 27 h.
`Cc1nnc(C2CC2)n1Cc1cc(C(F)(F)F)ccc1-n1cc(CC(=O)O)c2ccc(F)cc21`: the IC50 in assay [1] (read-out: IC50) turned out to be 9 nM. The T1/2 in assay [2] is 16 h.
On the same counts, the results for `Cc1nnc(C2CC2)n1Cc1cc(C(F)(F)F)ccc1-c1cn(CC(=O)O)c2ccc(F)cc12` are 6 nM and 20 h.
The corresponding values for `Cc1noc(C2CC2)c1Cc1cc(C(F)(F)F)ccc1-c1cn(CC(=O)O)c2ccc(F)cc12` are 37 nM and 8 h.
Consider `Cc1ccc2c(CC(=O)O)cn(-c3ccc(C(F)(F)F)cc3CSC(C)(C)C)c2n1`, for which the IC50 result in assay [1] (cho.k1) was “Not Active”.
With `Cc1ccc2c(CC(=O)O)cn(-c3ccccc3Cn3ccnn3)c2n1`, the IC50 in assay [1] (read-out: IC50) was found to be 1800 nM.
Take `Cc1noc(C2CC2)c1Cc1cc(Cl)ccc1-n1cc(CC(=O)O)c2ccc(Cc3ccccc3)nc21`: in assay [1] (read-out: IC50), the IC50 worked out at 7 nM. Moreover, in assay [3], the T1/2 was 42 h.
`Cc1ccc(-n2cc(CC(=O)O)c3ccc(C)nc32)c(Cc2ccnn2Cc2ccccc2)c1`: the IC50 in assay [1] (read-out: IC50) worked out at 1000 nM.
Regarding `Cc1ccc2c(CC(=O)O)cn(-c3ccc(C(F)(F)F)cc3Cc3c(C)noc3C3CC3)c2n1`, the IC50 in assay [1] (read-out: IC50) worked out at 1 nM. Further, the T1/2 in assay [2] was 13 h.
Consider `Cc1ccc(-n2cc(CC(=O)O)c3ccc(C)nc32)c(Cn2nncc2C)c1`, for which, in assay [1] (read-out: IC50), the IC50 amounted to 150 nM.
As to `Cc1c(-c2cccc3c2CCN(S(C)(=O)=O)C3)c2cc(F)ccc2n1CC(=O)O`, the IC50 in assay [1] (read-out: IC50) amounted to 4 nM. This molecule also came in with a T1/2 in assay [2] of 1.7 h.
The corresponding values for `Cc1ccc2c(n1)c(-c1ccc(C(F)(F)F)cc1Cc1c(C)noc1C)cn2CC(=O)O` are 5 nM and 5 h.
As to `Cc1ccc2c(CC(=O)O)cn(-c3ccc(Cl)cc3Cc3cncnc3)c2n1`, the IC50 in assay [1] (read-out: IC50) stood at 1400 nM.
Turning to `Cc1ccn2c(CC(=O)O)cc(-c3ccc(C(F)(F)F)cc3Cc3c(C)noc3C3CC3)c2n1`, the IC50 in assay [1] (read-out: IC50) is 5 nM. Moreover, in assay [2], the T1/2 is 12 h.
On the same counts, the results for `Cc1ccc2c(CC(=O)O)cn(-c3ccc(C(F)(F)F)cc3Cc3c(C4CC4)noc3C3CC3)c2n1` are 3 nM and 23 h.
On the same counts, the results for `COc1ccc(CC(=O)O)cc1-c1ccc(C(F)(F)F)cc1Cn1c(C)nnc1C1CC1` are 27 nM and 1.5 h.
Turning to `Cc1noc(C)c1Cc1cc(C(F)(F)F)ccc1-c1cn(CC(=O)O)c2ccc(F)cc12`, the IC50 in assay [1] (read-out: IC50) is 20 nM. The molecule also returned a T1/2 in assay [2] of 10 h.
`Cc1cn(Cc2ccccc2-n2cc(CC(=O)O)c3ccc(C)nc32)c(C)n1`: the IC50 entry in assay [1] (cho.k1) is recorded as “Not Active”.
On to `Cc1noc(C2CC2)c1Cc1cc(C(F)(F)F)ccc1-c1cn(CC(=O)O)c2ccc(C(F)(F)F)nc12`, for which, in assay [1] (read-out: IC50), the IC50 worked out at 23 nM. Moreover, in assay [2], the T1/2 was 25 h.
On the same counts, the results for `Cc1ccc(-n2cc(CC(=O)O)c3ccc(Cc4ccccc4)nc32)c(Cn2c(C)nnc2C)c1` are 7 nM and 20 h.
With `Cc1ccc2c(CC(=O)O)cn(-c3ccc(Cl)cc3Cn3c(C)nnc3Cc3ccccc3)c2n1`, the IC50 in assay [1] (read-out: IC50) amounted to 11 nM. Moreover, the T1/2 in assay [2] is 26 h.
With `Cc1ccc(-n2cc(CC(=O)O)c3ccc(C)nc32)c(Cn2c(C)nnc2C)c1`, the IC50 in assay [1] (read-out: IC50) came out at 16 nM. Further, in assay [2], the T1/2 was determined as 9 h.
On the same counts, the results for `Cc1ccc(-n2cc(CC(=O)O)c3ccc(C)nc32)c(Cn2ccnc2-c2ccccc2)c1` are 30 nM and 1.2 h.
Regarding `Cc1ccc(-n2cc(CC(=O)O)c3ccc(C)nc32)c(Cn2ccnc2C)c1`, in assay [1] (read-out: IC50), the IC50 worked out at 250 nM.
With `Cc1ccc2c(CC(=O)O)cn(-c3ccc(Cl)cc3Cc3cc(C)nn3C)c2n1`, the IC50 result in assay [1] (cho.k1) is on record as “Not Active”.
Turning to `CCCc1nc2ccccc2n1Cc1ccccc1-n1cc(CC(=O)O)c2ccc(C)nc21`, in assay [1] (read-out: IC50), the IC50 stood at 51 nM. The molecule further displayed a T1/2 in assay [2] of 0.6 h.
The corresponding values for `CCN(Cc1cc(C(F)(F)F)ccc1-c1cc(CC(=O)O)ccc1OC)C(=O)C1CC1` are 14 nM and 2 h.
On to `Cc1ccc2c(CC(=O)O)cn(-c3ccc(Cl)cc3Cc3cncnc3C(C)C)c2n1`, for which the IC50 in assay [1] (read-out: IC50) came out at 170 nM.
Consider `CCN(Cc1cc(C(F)(F)F)ccc1-n1cc(CC(=O)O)c2ccc(C)nc21)C(C)=O`, for which, in assay [1] (read-out: IC50), the IC50 was 10 nM. The same molecule yielded a T1/2 in assay [2] of 6 h.
Consider `Cc1ccc2c(CC(=O)O)cn(-c3ccc(Cl)cc3Cc3c(C)noc3Cc3ccccc3)c2n1`, for which, in assay [1] (read-out: IC50), the IC50 worked out at 3 nM. The T1/2 in assay [3] was 45 h.
For `Cc1ccc2c(CC(=O)O)cn(-c3ccc(Cl)cc3Cn3c(C)nnc3CCc3ccccc3)c2n1`, the IC50 in assay [1] (read-out: IC50) is 9 nM. This molecule also yielded a T1/2 in assay [2] of 26 h.
Take `COc1ccc(CC(=O)O)cc1-c1ccc(C(F)(F)F)cc1Cn1ccccc1=O`: the half-maximal inhibitory concentration (IC50) entry in assay [1] (cho.k1) is given as “Not Active”.
With `CCN(Cc1cc(C(=O)NCCc2ccccc2)ccc1-n1cc(CC(=O)O)c2ccc(C)nc21)C(=O)C1CC1`, in assay [1] (read-out: IC50), the IC50 amounted to 8 nM. The T1/2 in assay [2] came out at 11 h.
Regarding `Cc1ccc2c(CC(=O)O)cn(-c3ccccc3Cn3ccnc3)c2n1`, the IC50 in assay [1] (read-out: IC50) was determined as 580 nM.
Regarding `Cc1ccc2c(CC(=O)O)cn(-c3ccc(F)cc3Cc3c(C)cnn3C)c2n1`, the IC50 in assay [1] (read-out: IC50) is 10 nM. The T1/2 in assay [2] came out at 1.2 h.
With `O=C(O)Cn1cc(-c2ccc(C(F)(F)F)cc2Cc2ocnc2C2CC2)c2cc(F)ccc21`, the IC50 in assay [1] (read-out: IC50) is 2600 nM.
Regarding `Cc1ccc2c(CC(=O)O)cn(-c3ccc(Cl)cc3Cn3c(C)nnc3C3CC3)c2n1`, the IC50 in assay [1] (read-out: IC50) amounted to 56 nM. In assay [2], this molecule came in with a T1/2 of 20 h.

The values are drawn from ChEMBL document CHEMBL3351469, “Structure-activity relationships (SAR) and structure-kinetic relationships (SKR) of bicyclic heteroaromatic acetic acids as potent CRTh2 antagonists III: the role of a hydrogen-bond acceptor in long receptor residence times” (Bioorg Med Chem Lett, 2014).
